Results published in patent publication US5475114A, “Pyrazolotriazole derivatives” (Yamanouchi Pharmaceutical Co., Ltd., priority 1991, dated 1995).
Structures can show the parent of a compound that is named as a salt.

Tests used:
AII receptor [1] = assay: in vivo: inhibitory effect on AII-caused pressor reaction in a spinal cord-broken rat; details: dose which decreases 30 mm Hg of blood pressure after AII administration (100 ng/kg/min continuous iv)
Description: The AII receptor-blocking activity of the compound of the present invention was measured based on its antagonistic effect (in vitro) on AII contraction of an excised rabbit aorta and its inhibitory effect (in vivo) on AII-caused pressor reaction in a spinal cord-broken rat. In vivo test: An in vivo test was carried out by inserting cannulae into an aorta and a vein of a spinal cord-broken rat under artificial respiration. […] Since a drug having AII receptor-blocking activity inhibits the AII-caused continuous blood pressure increase in a dose-dependent manner, the AII antagonistic function of the test drug was examined based on the decreasing width of blood pressure after administration of the test drug.

AII receptor [2] = biological target: T1, AII receptor (Oryctolagus cuniculus, UniProt P34976); assay: in vitro: antagonistic effect on AII contraction of an excised rabbit aorta (spiral strip); assay type: cell-based; details: for Kb: negative log of concentration required to shift AII dose-response curve to two times higher concentration, read-out: in vitro (pA2 value) (converted); for IC50: negative log of concentration required to inhibit 50% of the maximum AII contraction, read-out: in vitro (pD2 ' value) (converted)
T1 construct: A portion of rabbit aorta was excised to prepare a spiral strip specimen; from tissue; host or cells: excised rabbit aorta, spiral strip
T1 sequence (P34976 1-359): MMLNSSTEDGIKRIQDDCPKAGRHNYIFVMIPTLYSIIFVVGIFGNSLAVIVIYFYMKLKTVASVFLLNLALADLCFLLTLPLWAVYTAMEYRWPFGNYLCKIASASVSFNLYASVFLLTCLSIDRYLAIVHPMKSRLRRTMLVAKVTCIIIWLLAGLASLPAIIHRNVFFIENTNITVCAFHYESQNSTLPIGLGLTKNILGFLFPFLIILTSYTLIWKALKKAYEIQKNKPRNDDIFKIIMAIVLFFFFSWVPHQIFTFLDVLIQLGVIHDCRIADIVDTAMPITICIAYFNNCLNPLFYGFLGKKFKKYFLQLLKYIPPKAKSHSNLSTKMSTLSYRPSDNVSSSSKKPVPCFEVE
Description: The AII receptor-blocking activity of the compound of the present invention was measured based on its antagonistic effect (in vitro) on AII contraction of an excised rabbit aorta and its inhibitory effect (in vivo) on AII-caused pressor reaction in a spinal cord-broken rat.
A portion of rabbit aorta was excised to prepare a spiral strip specimen which was subsequently hung in Krebs-Hensseleit solution. This spiral strip specimen causes a dose-dependent contraction when AII is added to the Krebs-Hensseleit solution. Since a drug having AII receptor-blocking activity causes shifting of the dose-response curve of the AII-based contraction to the high concentration side or reduces maximum contraction by AII, a shifted width of the dose-response curve before and after the addition of each test drug or a maximum contraction inhibiting ratio was calculated.

Compound | Kb (AII receptor [2]) [nM] | IC50 (AII receptor [2]) [nM] | in vivo (IC30 mmHg (mg/kg, iv)) (AII receptor [1]) [mg/kg]
CCCCc1nc(Cl)c(CO)n1Cc1ccc(-c2ccccc2-c2nn[nH]n2)cc1 [Dup 753, reference compound] | – | – | 0.1
CCc1nc2c(CC)c(C=O)n(Cc3ccc(-c4ccccc4-c4nn[nH]n4)cc3)n2n1 [Example 96, 2,7-diethyl-5-[[2'-(tetrazol-5-yl)biphenyl-4-yl]methyl]-5H-pyrazolo[1,5-b][1,2,4]triazole-6-carboxyaldehyde] | 0.692 | – | 0.02
CCc1nc2c(CC)c(CO)n(Cc3ccc(-c4ccccc4-c4nn[nH]n4)cc3)n2n1 [Example 98] | 0.955 | – | 0.02
CCc1nc2c(CC)c(C(=O)O)n(Cc3ccc(-c4ccccc4-c4nn[nH]n4)cc3)n2n1 [Example 99, 2,7-diethyl-5-[[2'-(tetrazol-5-yl)biphenyl-4-yl]methyl]-5H-pyrazolo[1,5-b][1,2,4]'triazole-6-carbonic acid] | – | 0.49 | –
CCc1nc2c(CC)c(C(=O)OC)n(Cc3ccc(-c4ccccc4-c4nn[nH]n4)cc3)n2n1 [Example 102, methyl 2,7-diethyl-5-[[2'-(tetrazol-5-yl)biphenyl-4-yl]methyl]-5H-pyrazolo[1,5-b][1,2,4]triazole-6-carboxylate sodium salt] | 0.724 | – | –
CCOC(=O)OC(C)OC(=O)c1c(CC)c2nc(CC)nn2n1Cc1ccc(-c2ccccc2-c2nnn[nH]2)cc1 (stereo not drawn) [Example 105, 1-ethoxycarbonyloxyethyl 2,7-diethyl-5-[[2'-(tetrazol-5-yl)biphenyl-4-yl]methyl]-5H-pyrazolo[1,5-b][1,2,4]triazole-6-carboxylate] | – | 0.933 | –

Second part, led by results:

Kb (AII receptor [2]) [nM] | IC50 (AII receptor [2]) [nM] | Compound | in vivo (IC30 mmHg (mg/kg, iv)) (AII receptor [1]) [mg/kg]
2.24 | – | CCc1nc2c(CC)cn(Cc3ccc(-c4ccccc4-c4nnn[nH]4)cc3)n2n1 [Example 52, 2,7-diethyl-5-[[2'-(tetrazol-5-yl)biphenyl-4-yl]methyl]-5H-pyrazolo[1,5-b][1,2,4]triazole] | 0.025
3.16 | – | CCc1cn(Cc2ccc(-c3ccccc3-c3nnn[nH]3)cc2)n2nc(C)nc12 [Example 53, 7-ethyl-2-methyl-5-[[2'-(tetrazol-5-yl)biphenyl-4-yl]methyl]-5H-pyrazolo[1,5-b][1,2,4]triazole] | 0.01
3.02 | – | CCc1nc2c(C(C)C)cn(Cc3ccc(-c4ccccc4-c4nnn[nH]4)cc3)n2n1 [Example 57, 2-ethyl-7-isopropyl-5-[[2'-(tetrazol-5-yl)biphenyl-4-yl]methyl]-5H-pyrazolo[1,5-b][1,2,4]triazole] | 0.04
1.41 | – | CCc1nc2c(CC)c(COC)n(Cc3ccc(-c4ccccc4-c4nnn[nH]4)cc3)n2n1 [Example 95, 2,7-diethyl-6-methoxymethyl-5-[[2'-(tetrazol-5-yl)biphenyl-4-yl]methyl]-5H-pyrazolo[1,5-b][1,2,4]triazole] | 0.06
1.55 | – | CCc1nc2c(CC)cn(Cc3ccc(-c4ccccc4-c4nn[nH]n4)cc3)n2n1 [Example 100, 2,7-diethyl-5-[[2'-(tetrazol-5-yl)biphenyl-4-yl]methyl]-5H-pyrazolo[1,5-b][1,2,4]triazole potassium salt] | –
0.562 | – | CCOC(=O)c1c(CC)c2nc(CC)nn2n1Cc1ccc(-c2ccccc2-c2nnn[nH]2)cc1 [Example 101, ethyl 2,7-diethyl-5-[[2'-(tetrazol-5-yl)biphenyl-4-yl]methyl]-5H-pyrazolo[1,5-b][1,2,4] triazole-6-carboxylate] | –
